Reference: patent publication US9815862B2, “Polymorphs of LNnT” (Glycom A/S, priority 2012, dated 2017)

How the values were obtained:
[1] = Redissolution of the precipitate formed from aqueous LNnT solution; format: physicochemical; conditions: white precipitate from aqueous solution stored at 2-8° C. or room temperature
Method: Amorphous spray-dried LNnT (6.0087 g, water content: 2.67%, purity: 99.2% by HPAEC) was dissolved in HPLC water (10.66 ml). Dissolution was reached by shaking. Two samples of 1 ml solution were stored at 2-8° C. (sample 1) and room temperature (sample 2), respectively, for 4 weeks. […] The precipitation was collected by filtration and dried at atmospheric pressure.

[2] = Storage of crystalline polymorph in an open vessel, checked by XRPD; format: physicochemical; conditions: stored in an open vessel at ambient temperature and humidity for a week
Method: XRPD investigation of the collected crystals was conducted with a Philips PW 1830/PW 1050 instrument in transmission geometry, using CuKα radiation made monochromatic by means of a graphite monochromator. D-spacings were calculated from the 2Θ values, based on a wavelength of 1.54186 Å. As a general rule the 2Θ values have an error rate of […].

| SMILES | redissolution of the precipitated crystals [1] | change in XRPD pattern on storage (solid-state stability) [2] |
| --- | --- | --- |
| CC(=O)N[C@H]1[C@H](O[C@H]2[C@@H](O)[C@@H](CO)O[C@@H](O[C@H]3[C@H](O)[C@@H](O)C(O)O[C@@H]3CO)[C@@H]2O)O[C@H](CO)[C@@H](O[C@@H]2O[C@H](CO)[C@H](O)[C@H](O)[C@H]2O)[C@@H]1O (mixture of isomers) [LNnT polymorph IV, lacto-N-neotetraose] | can be redissolved only when ultrasonicated for 3 hours at 50 °C |  |
| CC(=O)N[C@H]1[C@H](O[C@H]2[C@@H](O)[C@@H](CO)O[C@@H](O[C@H]3[C@H](O)[C@@H](O)C(O)O[C@@H]3CO)[C@@H]2O)O[C@H](CO)[C@@H](O[C@@H]2O[C@H](CO)[C@H](O)[C@H](O)[C@H]2O)[C@@H]1O (mixture of isomers) [LNnT polymorph V, lacto-N-neotetraose] |  | no substantial change in its XRPD pattern can be observed |
